Key:
Assay in all cases: KAM-matrix competition in K562 lysate;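 as to 0.001 uM KAM: median log10 fold change of treatment over DMSO control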;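 as to 0.01 uM KAM: median log10 fold change of treatment over DMSO control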;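 as to 0.1 uM KAM: median log10 fold change of treatment over DMSO control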;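 as to 1 uM KAM: median log10 fold change of treatment over DMSO control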;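 as to 10 uM KAM: median log10 fold change of treatment over DMSO control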
Assay type in all cases: binding
[1] = molecular target: T1, CDK17 (Homo sapiens, UniProt Q00537);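 as to 0.001 uM KAM: median log10 fold change of treatment over DMSO control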;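 as to 0.01 uM KAM: median log10 fold change of treatment over DMSO control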;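 as to 0.1 uM KAM: median log10 fold change of treatment over DMSO control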;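 as to 1 uM KAM: median log10 fold change of treatment over DMSO control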;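 as to 10 uM KAM: median log10 fold change of treatment over DMSO control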
T1 construct: endogenous in cells; host or cells: K562 cell lysate
Method: (§1) Supplement 12953_2017_125_MOESM1_ESM.zip/MS_Supp Info.xlsx, sheet "KAM" | column: 10 uM KAM; 1 uM KAM; 0.1 uM KAM; 0.01 uM KAM; 0.001 uM KAM; RB50

[2] = molecular target: T2, PAK4 (Homo sapiens, UniProt O96013)
T2 construct: endogenous in cells; host or cells: K562
Method: as §1

[3] = molecular target: T3, TAOK2 (Homo sapiens, UniProt Q9UL54);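 as to 0.001 uM KAM: median log10 fold change of treatment over DMSO control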;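 as to 0.01 uM KAM: median log10 fold change of treatment over DMSO control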;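 as to 0.1 uM KAM: median log10 fold change of treatment over DMSO control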;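 as to 1 uM KAM: median log10 fold change of treatment over DMSO control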;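 as to 10 uM KAM: median log10 fold change of treatment over DMSO control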
T3 construct: endogenous in cells; host or cells: K562
T3 sequence (Q9UL54 1-1235): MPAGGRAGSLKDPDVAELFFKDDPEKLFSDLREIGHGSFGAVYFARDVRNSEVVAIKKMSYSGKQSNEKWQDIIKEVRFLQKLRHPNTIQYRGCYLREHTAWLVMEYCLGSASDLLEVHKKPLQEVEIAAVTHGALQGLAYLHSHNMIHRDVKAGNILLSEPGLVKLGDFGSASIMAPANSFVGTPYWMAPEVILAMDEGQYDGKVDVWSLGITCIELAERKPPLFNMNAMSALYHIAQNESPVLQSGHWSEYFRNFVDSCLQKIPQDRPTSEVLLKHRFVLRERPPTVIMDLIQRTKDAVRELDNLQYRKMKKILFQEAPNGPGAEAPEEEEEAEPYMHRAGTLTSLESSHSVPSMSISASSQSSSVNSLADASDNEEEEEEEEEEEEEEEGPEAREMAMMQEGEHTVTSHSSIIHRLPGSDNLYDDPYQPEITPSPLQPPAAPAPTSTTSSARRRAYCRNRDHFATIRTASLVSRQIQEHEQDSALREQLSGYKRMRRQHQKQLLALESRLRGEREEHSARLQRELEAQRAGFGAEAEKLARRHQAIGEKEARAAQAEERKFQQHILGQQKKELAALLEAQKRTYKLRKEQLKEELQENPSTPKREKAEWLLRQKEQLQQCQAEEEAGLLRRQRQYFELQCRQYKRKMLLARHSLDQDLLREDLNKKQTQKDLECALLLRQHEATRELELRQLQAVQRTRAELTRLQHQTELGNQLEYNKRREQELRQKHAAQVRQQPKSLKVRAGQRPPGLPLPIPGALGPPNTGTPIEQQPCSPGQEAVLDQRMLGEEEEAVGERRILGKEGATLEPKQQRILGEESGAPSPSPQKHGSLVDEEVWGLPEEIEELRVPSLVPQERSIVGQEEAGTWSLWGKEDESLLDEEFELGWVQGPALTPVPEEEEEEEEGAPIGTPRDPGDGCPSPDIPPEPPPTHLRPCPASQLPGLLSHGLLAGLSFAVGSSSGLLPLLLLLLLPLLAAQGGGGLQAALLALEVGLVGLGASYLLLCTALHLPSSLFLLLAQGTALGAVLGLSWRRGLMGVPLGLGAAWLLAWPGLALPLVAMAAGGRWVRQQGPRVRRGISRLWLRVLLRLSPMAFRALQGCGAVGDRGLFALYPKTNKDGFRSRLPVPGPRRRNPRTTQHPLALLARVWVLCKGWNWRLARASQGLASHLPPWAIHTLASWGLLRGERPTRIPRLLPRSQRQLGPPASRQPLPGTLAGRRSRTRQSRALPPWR
Method: as §1

[4] = molecular target: T4, CAMKK1 (Homo sapiens, UniProt Q8N5S9)
T4 construct: endogenous in cells; host or cells: K562
Method: as §1

[5] = molecular target: T5, RIPK2 (Homo sapiens, UniProt O43353)
T5 construct: endogenous in cells; host or cells: K562
Method: as §1

[6] = molecular target: T6, KSR1 (Homo sapiens, UniProt Q8IVT5);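 as to 0.001 uM KAM: median log10 fold change of treatment over DMSO control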;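 as to 0.01 uM KAM: median log10 fold change of treatment over DMSO control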;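 as to 0.1 uM KAM: median log10 fold change of treatment over DMSO control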;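 as to 1 uM KAM: median log10 fold change of treatment over DMSO control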;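 as to 10 uM KAM: median log10 fold change of treatment over DMSO control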
T6 construct: endogenous in cells; host or cells: K562
T6 sequence (Q8IVT5 1-923): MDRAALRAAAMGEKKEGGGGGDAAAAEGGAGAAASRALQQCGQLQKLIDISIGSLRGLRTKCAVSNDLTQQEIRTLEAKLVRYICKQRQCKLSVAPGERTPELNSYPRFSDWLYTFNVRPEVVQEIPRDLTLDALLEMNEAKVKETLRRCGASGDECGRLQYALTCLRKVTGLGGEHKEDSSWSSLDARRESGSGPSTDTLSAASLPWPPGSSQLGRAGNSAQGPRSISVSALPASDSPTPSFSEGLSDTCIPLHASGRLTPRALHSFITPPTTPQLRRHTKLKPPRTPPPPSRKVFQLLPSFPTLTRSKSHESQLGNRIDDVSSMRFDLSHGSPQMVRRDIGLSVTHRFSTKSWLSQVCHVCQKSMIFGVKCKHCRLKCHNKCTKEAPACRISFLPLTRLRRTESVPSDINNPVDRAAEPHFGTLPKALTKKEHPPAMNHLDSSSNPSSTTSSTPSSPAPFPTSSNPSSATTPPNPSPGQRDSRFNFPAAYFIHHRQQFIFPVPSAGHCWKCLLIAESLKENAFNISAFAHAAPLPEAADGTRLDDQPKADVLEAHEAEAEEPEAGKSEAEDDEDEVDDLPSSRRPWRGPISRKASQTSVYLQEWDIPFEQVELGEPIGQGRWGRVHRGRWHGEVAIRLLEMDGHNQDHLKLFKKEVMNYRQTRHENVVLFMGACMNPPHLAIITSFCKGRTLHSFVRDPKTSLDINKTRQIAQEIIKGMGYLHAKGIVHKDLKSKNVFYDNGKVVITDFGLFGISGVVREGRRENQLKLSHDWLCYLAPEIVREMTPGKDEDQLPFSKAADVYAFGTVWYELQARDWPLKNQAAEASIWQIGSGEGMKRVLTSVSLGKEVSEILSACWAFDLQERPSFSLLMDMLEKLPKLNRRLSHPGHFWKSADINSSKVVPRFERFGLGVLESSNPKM
Method: as §1

[7] = KAM 0.001-10 uM, read-out: RB50 (the source's name)
[8] = read-out: RB50 (the source's name)

T5 sequence (O43353 whole entry): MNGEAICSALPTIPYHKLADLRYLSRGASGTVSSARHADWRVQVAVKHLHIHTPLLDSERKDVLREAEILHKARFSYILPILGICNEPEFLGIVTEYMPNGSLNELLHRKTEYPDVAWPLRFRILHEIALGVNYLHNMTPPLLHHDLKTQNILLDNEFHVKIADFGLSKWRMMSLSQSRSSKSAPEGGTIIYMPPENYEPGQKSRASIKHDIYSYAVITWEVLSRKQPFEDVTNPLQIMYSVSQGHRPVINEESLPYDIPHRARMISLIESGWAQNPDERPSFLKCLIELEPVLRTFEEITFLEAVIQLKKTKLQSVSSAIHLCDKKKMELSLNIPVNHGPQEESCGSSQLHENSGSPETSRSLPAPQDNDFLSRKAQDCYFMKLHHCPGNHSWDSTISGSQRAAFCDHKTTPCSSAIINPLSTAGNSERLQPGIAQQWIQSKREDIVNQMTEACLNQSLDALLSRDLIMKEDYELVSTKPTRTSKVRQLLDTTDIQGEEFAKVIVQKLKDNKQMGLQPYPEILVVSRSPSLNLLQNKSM
T4 sequence (Q8N5S9 whole entry): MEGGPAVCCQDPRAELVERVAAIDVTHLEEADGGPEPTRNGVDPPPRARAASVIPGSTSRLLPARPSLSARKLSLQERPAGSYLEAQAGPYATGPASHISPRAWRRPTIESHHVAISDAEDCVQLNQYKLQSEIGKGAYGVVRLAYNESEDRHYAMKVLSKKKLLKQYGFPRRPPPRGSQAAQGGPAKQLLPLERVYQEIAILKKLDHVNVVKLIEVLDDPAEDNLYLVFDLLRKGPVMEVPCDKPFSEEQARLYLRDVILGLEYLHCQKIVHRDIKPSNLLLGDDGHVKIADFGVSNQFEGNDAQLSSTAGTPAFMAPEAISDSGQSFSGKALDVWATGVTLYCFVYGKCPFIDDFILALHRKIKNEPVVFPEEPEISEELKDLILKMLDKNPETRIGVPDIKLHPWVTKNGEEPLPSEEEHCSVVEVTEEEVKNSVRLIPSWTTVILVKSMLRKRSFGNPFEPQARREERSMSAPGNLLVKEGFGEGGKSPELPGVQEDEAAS
T2 sequence (O96013 whole entry): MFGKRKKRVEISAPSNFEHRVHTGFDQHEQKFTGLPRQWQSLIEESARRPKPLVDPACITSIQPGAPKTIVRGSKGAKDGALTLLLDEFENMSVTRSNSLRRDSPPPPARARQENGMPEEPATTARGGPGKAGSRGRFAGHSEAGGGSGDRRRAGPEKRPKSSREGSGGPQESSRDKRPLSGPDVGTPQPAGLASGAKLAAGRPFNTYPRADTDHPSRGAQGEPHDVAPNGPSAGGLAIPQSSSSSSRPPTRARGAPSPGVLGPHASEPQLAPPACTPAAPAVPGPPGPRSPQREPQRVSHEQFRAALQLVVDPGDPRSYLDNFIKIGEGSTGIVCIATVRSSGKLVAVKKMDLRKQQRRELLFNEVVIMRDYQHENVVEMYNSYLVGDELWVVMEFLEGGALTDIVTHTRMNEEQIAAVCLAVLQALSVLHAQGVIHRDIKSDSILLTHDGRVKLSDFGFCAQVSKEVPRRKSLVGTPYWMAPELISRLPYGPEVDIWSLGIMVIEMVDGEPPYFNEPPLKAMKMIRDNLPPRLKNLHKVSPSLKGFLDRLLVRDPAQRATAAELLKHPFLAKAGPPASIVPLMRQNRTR
T1 sequence (Q00537 whole entry): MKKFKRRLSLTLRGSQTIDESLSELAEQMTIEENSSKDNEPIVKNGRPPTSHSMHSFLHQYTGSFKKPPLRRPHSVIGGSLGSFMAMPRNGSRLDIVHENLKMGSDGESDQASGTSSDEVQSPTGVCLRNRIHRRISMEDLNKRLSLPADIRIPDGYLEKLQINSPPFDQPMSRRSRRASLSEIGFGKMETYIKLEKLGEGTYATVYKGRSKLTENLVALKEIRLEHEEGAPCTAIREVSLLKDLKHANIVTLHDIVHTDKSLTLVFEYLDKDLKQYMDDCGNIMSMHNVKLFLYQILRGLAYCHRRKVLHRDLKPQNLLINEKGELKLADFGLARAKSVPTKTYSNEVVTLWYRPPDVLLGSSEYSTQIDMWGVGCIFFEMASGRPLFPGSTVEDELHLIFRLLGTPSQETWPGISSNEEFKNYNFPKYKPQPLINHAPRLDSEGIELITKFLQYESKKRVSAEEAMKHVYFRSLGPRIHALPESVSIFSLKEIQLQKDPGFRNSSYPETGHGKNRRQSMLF

N#CCc1ccc(Nc2nc(NCCCN)cc(Nc3cc(C4CC4)[nH]n3)n2)cc1 [KAM]
IC50 [1, 7]: > 10 µM
0.001 uM KAM ([1]; relative to 0 uM KAM = 0): -0.02399
0.01 uM KAM ([1]; relative to 0 uM KAM = 0): -0.01557
0.1 uM KAM ([1]; relative to 0 uM KAM = 0): -0.06864
1 uM KAM ([1]; relative to 0 uM KAM = 0): -0.1892
10 uM KAM ([1]; relative to 0 uM KAM = 0): -0.2802
median Log10 fold change ([2]; 0.001 uM KAM): -0.02305
median Log10 fold change ([2]; 0.01 uM KAM): -0.006782
median Log10 fold change ([2]; 0.1 uM KAM): -0.1812
median Log10 fold change ([2]; 1 uM KAM): -0.403
median Log10 fold change ([2]; 10 uM KAM): -0.4884
IC50 [2, 8]: 0.527 µM
IC50 [3, 7]: 6.63 µM
0.001 uM KAM ([3]; relative to 0 uM KAM = 0): -0.0603
0.01 uM KAM ([3]; relative to 0 uM KAM = 0): -0.04102
0.1 uM KAM ([3]; relative to 0 uM KAM = 0): -0.1359
1 uM KAM ([3]; relative to 0 uM KAM = 0): -0.1664
10 uM KAM ([3]; relative to 0 uM KAM = 0): -0.2974
median Log10 fold change ([4]; 0.001 uM KAM): -0.02592
median Log10 fold change ([4]; 0.01 uM KAM): -0.02355
median Log10 fold change ([4]; 0.1 uM KAM): -0.2718
median Log10 fold change ([4]; 1 uM KAM): -0.415
median Log10 fold change ([4]; 10 uM KAM): -0.4583
IC50 [4, 8]: 0.248 µM
median Log10 fold change ([5]; 0.001 uM KAM): 0.003964
median Log10 fold change ([5]; 0.01 uM KAM): -0.006424
median Log10 fold change ([5]; 0.1 uM KAM): -0.0711
median Log10 fold change ([5]; 1 uM KAM): -0.241
median Log10 fold change ([5]; 10 uM KAM): -0.4874
IC50 [5, 8]: 1.86 µM
IC50 [6, 7]: > 10 µM
0.001 uM KAM ([6]; relative to 0 uM KAM = 0): -0.01848
0.01 uM KAM ([6]; relative to 0 uM KAM = 0): -0.01741
0.1 uM KAM ([6]; relative to 0 uM KAM = 0): -0.1182
1 uM KAM ([6]; relative to 0 uM KAM = 0): -0.1931
10 uM KAM ([6]; relative to 0 uM KAM = 0): -0.2362

Reference: PMC5513037, “Examining the influence of specificity ligands and ATP-competitive ligands on the overall effectiveness of bivalent kinase inhibitors” (Proteome Science, 2017)
